Source: patent US20240409585A1, “MACROCYCLIC IMMUNOMODULATORS” (priority 2021, published 2024)
Bridge positions count the residues as written; N and C are the ends. Square brackets hold non-standard residues; d marks the D form. Peptide text beside a SMILES is read from it. ξ: configuration not given here. Bip = N[C@@H](Cc1ccc(-c2ccccc2)cc1)C(=O)O; Bta = N[C@@H](Cc1csc2ccccc12)C(=O)O; ξPhe(2-Me) = Cc1ccccc1CC(N)C(=O)O; 3Pal = N[C@@H](Cc1cccnc1)C(=O)O; dChg = N[C@@H](C(=O)O)C1CCCCC1; dPhg = N[C@@H](C(=O)O)c1ccccc1; dNle = CCCC[C@@H](N)C(=O)O; dNva = CCC[C@@H](N)C(=O)O; NMeA = CN[C@@H](C)C(=O)O; Dab = NCC[C@H](N)C(=O)O

Biological target: T1, PE-labeled human PD-L1-Ig binding to Jurkat cell line over-expressing human PD-1 (Jurkat-PD-1) (Homo sapiens, UniProt Q15116)
T1 construct: expressed in transfected cells; host or cells: Jurkat
T1 sequence (Q15116 25-288): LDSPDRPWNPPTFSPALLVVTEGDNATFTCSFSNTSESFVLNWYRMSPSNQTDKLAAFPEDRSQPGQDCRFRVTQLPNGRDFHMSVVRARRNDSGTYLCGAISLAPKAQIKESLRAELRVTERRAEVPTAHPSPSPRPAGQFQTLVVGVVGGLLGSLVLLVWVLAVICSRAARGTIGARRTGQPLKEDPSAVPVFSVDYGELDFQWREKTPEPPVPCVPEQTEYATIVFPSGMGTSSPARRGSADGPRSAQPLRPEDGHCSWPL
Experiment: Jurkat-PD-1 Cell Binding High-Content Screening Assay (CBA): Method 1
Conditions: Jurkat HPDL1 PD1 IC50 (uM) (Method 1), Jurkat-hPD-1 cells, PE-labeled PD-L1-Ig 20 nM final

SMILES	IC50 [µM]
CC(C)C[C@@H]1NC(=O)[C@H](CCN)NC(=O)[C@@H](CC(C)C)NC(=O)[C@H](C)N(C)C(=O)[C@H](CCCNC(=N)N)NC(=O)[C@H](Cc2ccc(-c3ccccc3)cc2)NC(=O)[C@H](C(C)C)NC(=O)[C@H](Cc2c[nH]c3ccccc23)NC(=O)[C@H](CC(=O)O)NC(=O)[C@H](Cc2ccc(O)cc2)NC(=O)[C@H](CC(N)=O)NC(=O)CSC[C@@H](C(=O)N[C@@H](C)C(N)=O)NC(=O)[C@H](CO)NC(=O)[C@H](C(C)C)NC1=O [Compound 1054] ({CH2CO}-NYDWV[Bip]R[NMeA][dL][Dab]LVSCA-NH2; thioether N-14)	0.09

Same assay, conditions: Jurkat-hPD-1 cells, PE-labeled PD-L1-Ig 20 nM final; read-out: Jurkat HPDL1 PD1 IC50 (uM) (Method 1)

SMILES	IC50 [µM]
CC(C)C[C@@H]1NC(=O)[C@H](CCN)NC(=O)[C@@H](CC(C)C)NC(=O)[C@H](C)N(C)C(=O)[C@H](CCCNC(=N)N)NC(=O)[C@H](Cc2ccc(-c3ccccc3)cc2)NC(=O)[C@H](C(C)C)NC(=O)[C@H](Cc2c[nH]c3ccccc23)NC(=O)[C@H](CC(=O)O)NC(=O)[C@H](Cc2ccc(O)cc2)NC(=O)[C@H](Cc2ccccc2)NC(=O)CSC[C@@H](C(=O)N[C@@H](C)C(N)=O)NC(=O)[C@H]([C@@H](C)O)NC(=O)[C@H](C(C)C)NC1=O [Compound 1052] ({CH2CO}-FYDWV[Bip]R[NMeA][dL][Dab]LVTCA-NH2; thioether N-14)	0.04
CC(C)C[C@@H]1NC(=O)[C@H](CCN)NC(=O)[C@@H](CC(C)C)NC(=O)[C@H](C)N(C)C(=O)[C@H](CCCNC(=N)N)NC(=O)[C@H](Cc2ccc(-c3ccccc3)cc2)NC(=O)[C@H](C(C)C)NC(=O)[C@H](Cc2c[nH]c3ccccc23)NC(=O)[C@H](CC(=O)O)NC(=O)[C@H](Cc2ccc(O)cc2)NC(=O)[C@H](Cc2cccnc2)NC(=O)CSC[C@@H](C(=O)N[C@@H](C)C(N)=O)NC(=O)[C@H]([C@@H](C)O)NC(=O)[C@H](C(C)C)NC1=O [Compound 1053] ({CH2CO}-[3Pal]YDWV[Bip]R[NMeA][dL][Dab]LVTCA-NH2; thioether N-14)	0.12
CC(C)C[C@@H]1NC(=O)[C@H](CCCNC(=N)N)NC(=O)[C@H](Cc2csc3ccccc23)NC(=O)[C@H](C)N(C)C(=O)[C@H](CCCNC(=N)N)NC(=O)[C@H](Cc2ccc(-c3ccccc3)cc2)NC(=O)[C@H](C(C)C)NC(=O)[C@H](Cc2c[nH]c3ccccc23)NC(=O)[C@H](CC(=O)O)NC(=O)[C@H](Cc2ccc(O)cc2)NC(=O)[C@H](CC(N)=O)NC(=O)CSC[C@@H](C(=O)N[C@@H](C)C(N)=O)NC(=O)[C@H](CO)NC(=O)[C@H](C(C)C)NC1=O [Compound 1055] ({CH2CO}-NYDWV[Bip]R[NMeA][Bta]RLVSCA-NH2; thioether N-14)	0.11
CC(C)C[C@@H]1NC(=O)[C@H](CCN)NC(=O)[C@@H](CC(C)C)NC(=O)[C@H](C)N(C)C(=O)[C@H](CCCNC(=N)N)NC(=O)[C@H](Cc2ccc(-c3ccccc3)cc2)NC(=O)[C@H](C(C)C)NC(=O)[C@H](Cc2c[nH]c3ccccc23)NC(=O)[C@H](CC(=O)O)NC(=O)[C@H](Cc2ccc(O)cc2)NC(=O)[C@H](CCC(N)=O)NC(=O)CSC[C@@H](C(=O)N[C@@H](C)C(N)=O)NC(=O)[C@H]([C@@H](C)O)NC(=O)[C@H](C(C)C)NC1=O [Compound 1056] ({CH2CO}-QYDWV[Bip]R[NMeA][dL][Dab]LVTCA-NH2; thioether N-14)	0.06
CC(C)C[C@@H]1NC(=O)[C@H](CCCNC(=N)N)NC(=O)[C@H](Cc2csc3ccccc23)NC(=O)[C@H](C)N(C)C(=O)[C@H](CCCNC(=N)N)NC(=O)[C@H](Cc2ccc(-c3ccccc3)cc2)NC(=O)[C@H](C(C)C)NC(=O)[C@H](Cc2c[nH]c3ccccc23)NC(=O)[C@H](CC(=O)O)NC(=O)[C@H](Cc2ccc(O)cc2)NC(=O)[C@H](CCC(N)=O)NC(=O)CSC[C@@H](C(=O)N[C@@H](C)C(N)=O)NC(=O)[C@H](CO)NC(=O)[C@H](C(C)C)NC1=O [Compound 1057] ({CH2CO}-QYDWV[Bip]R[NMeA][Bta]RLVSCA-NH2; thioether N-14)	0.18
CC(C)C[C@@H]1NC(=O)[C@H](CCCNC(=N)N)NC(=O)[C@@H]([C@H](C)O)NC(=O)[C@H](C)N(C)C(=O)[C@H](CCCNC(=N)N)NC(=O)[C@H](Cc2ccc(-c3ccccc3)cc2)NC(=O)[C@H](C(C)C)NC(=O)[C@H](Cc2c[nH]c3ccccc23)NC(=O)[C@H](CC(=O)O)NC(=O)[C@H](Cc2ccc(O)cc2)NC(=O)[C@H](Cc2ccccc2)NC(=O)CSC[C@@H](C(=O)N[C@@H](C)C(N)=O)NC(=O)[C@H]([C@@H](C)O)NC(=O)[C@H](C(C)C)NC1=O [Compound 1058] ({CH2CO}-FYDWV[Bip]R[NMeA][dT]RLVTCA-NH2; thioether N-14)	0.91
CC(C)C[C@@H]1NC(=O)[C@H](CCCNC(=N)N)NC(=O)[C@@H](c2ccccc2)NC(=O)[C@H](C)N(C)C(=O)[C@H](CCCNC(=N)N)NC(=O)[C@H](Cc2ccc(-c3ccccc3)cc2)NC(=O)[C@H](C(C)C)NC(=O)[C@H](Cc2c[nH]c3ccccc23)NC(=O)[C@H](CC(=O)O)NC(=O)[C@H](Cc2ccc(O)cc2)NC(=O)[C@H](Cc2ccccc2)NC(=O)CSC[C@@H](C(=O)N[C@@H](C)C(N)=O)NC(=O)[C@H]([C@@H](C)O)NC(=O)[C@H](C(C)C)NC1=O [Compound 1059] ({CH2CO}-FYDWV[Bip]R[NMeA][dPhg]RLVTCA-NH2; thioether N-14)	0.21
CC(C)C[C@@H]1NC(=O)[C@H](CCCNC(=N)N)NC(=O)[C@@H](C(C)C)NC(=O)[C@H](C)N(C)C(=O)[C@H](CCCNC(=N)N)NC(=O)[C@H](Cc2ccc(-c3ccccc3)cc2)NC(=O)[C@H](C(C)C)NC(=O)[C@H](Cc2c[nH]c3ccccc23)NC(=O)[C@H](CC(=O)O)NC(=O)[C@H](Cc2ccc(O)cc2)NC(=O)[C@H](Cc2ccccc2)NC(=O)CSC[C@@H](C(=O)N[C@@H](C)C(N)=O)NC(=O)[C@H]([C@@H](C)O)NC(=O)[C@H](C(C)C)NC1=O [Compound 1060] ({CH2CO}-FYDWV[Bip]R[NMeA][dV]RLVTCA-NH2; thioether N-14)	0.11
CC(C)C[C@@H]1NC(=O)[C@H](CCCNC(=N)N)NC(=O)[C@@H](C2CCCCC2)NC(=O)[C@H](C)N(C)C(=O)[C@H](CCCNC(=N)N)NC(=O)[C@H](Cc2ccc(-c3ccccc3)cc2)NC(=O)[C@H](C(C)C)NC(=O)[C@H](Cc2c[nH]c3ccccc23)NC(=O)[C@H](CC(=O)O)NC(=O)[C@H](Cc2ccc(O)cc2)NC(=O)[C@H](Cc2ccccc2)NC(=O)CSC[C@@H](C(=O)N[C@@H](C)C(N)=O)NC(=O)[C@H]([C@@H](C)O)NC(=O)[C@H](C(C)C)NC1=O [Compound 1061] ({CH2CO}-FYDWV[Bip]R[NMeA][dChg]RLVTCA-NH2; thioether N-14)	0.1

Continued, values first:

IC50 [µM]	SMILES
0.15	CSCC[C@H]1NC(=O)[C@H](C)N(C)C(=O)[C@H](CCCNC(=N)N)NC(=O)[C@H](Cc2ccc(-c3ccccc3)cc2)NC(=O)[C@H](C(C)C)NC(=O)[C@H](Cc2c[nH]c3ccccc23)NC(=O)[C@H](CC(=O)O)NC(=O)[C@H](Cc2ccc(O)cc2)NC(=O)[C@H](Cc2ccccc2)NC(=O)CSC[C@@H](C(=O)N[C@@H](C)C(N)=O)NC(=O)[C@H]([C@@H](C)O)NC(=O)[C@H](C(C)C)NC(=O)[C@H](CC(C)C)NC(=O)[C@H](CCCNC(=N)N)NC1=O [Compound 1062] ({CH2CO}-FYDWV[Bip]R[NMeA][dM]RLVTCA-NH2; thioether N-14)
0.06	CCCC[C@H]1NC(=O)[C@H](C)N(C)C(=O)[C@H](CCCNC(=N)N)NC(=O)[C@H](Cc2ccc(-c3ccccc3)cc2)NC(=O)[C@H](C(C)C)NC(=O)[C@H](Cc2c[nH]c3ccccc23)NC(=O)[C@H](CC(=O)O)NC(=O)[C@H](Cc2ccc(O)cc2)NC(=O)[C@H](Cc2ccccc2)NC(=O)CSC[C@@H](C(=O)N[C@@H](C)C(N)=O)NC(=O)[C@H]([C@@H](C)O)NC(=O)[C@H](C(C)C)NC(=O)[C@H](CC(C)C)NC(=O)[C@H](CCCNC(=N)N)NC1=O [Compound 1063] ({CH2CO}-FYDWV[Bip]R[NMeA][dNle]RLVTCA-NH2; thioether N-14)
0.1	CCC[C@H]1NC(=O)[C@H](C)N(C)C(=O)[C@H](CCCNC(=N)N)NC(=O)[C@H](Cc2ccc(-c3ccccc3)cc2)NC(=O)[C@H](C(C)C)NC(=O)[C@H](Cc2c[nH]c3ccccc23)NC(=O)[C@H](CC(=O)O)NC(=O)[C@H](Cc2ccc(O)cc2)NC(=O)[C@H](Cc2ccccc2)NC(=O)CSC[C@@H](C(=O)N[C@@H](C)C(N)=O)NC(=O)[C@H]([C@@H](C)O)NC(=O)[C@H](C(C)C)NC(=O)[C@H](CC(C)C)NC(=O)[C@H](CCCNC(=N)N)NC1=O [Compound 1064] ({CH2CO}-FYDWV[Bip]R[NMeA][dNva]RLVTCA-NH2; thioether N-14)
0.11	Cc1ccccc1CC1NC(=O)[C@H](C)N(C)C(=O)[C@H](CCCNC(=N)N)NC(=O)[C@H](Cc2ccc(-c3ccccc3)cc2)NC(=O)[C@H](C(C)C)NC(=O)[C@H](Cc2c[nH]c3ccccc23)NC(=O)[C@H](CC(=O)O)NC(=O)[C@H](Cc2ccc(O)cc2)NC(=O)[C@H](Cc2ccccc2)NC(=O)CSC[C@@H](C(=O)N[C@@H](C)C(N)=O)NC(=O)[C@H]([C@@H](C)O)NC(=O)[C@H](C(C)C)NC(=O)[C@H](CC(C)C)NC(=O)[C@H](CCCNC(=N)N)NC1=O (stereo partly drawn) [Compound 1065] ({CH2CO}-FYDWV[Bip]R[NMeA][ξPhe(2-Me)]RLVTCA-NH2; thioether N-14)
0.79	CC[C@@H](C)[C@H]1NC(=O)[C@H](C)N(C)C(=O)[C@H](CCCNC(=N)N)NC(=O)[C@H](Cc2ccc(-c3ccccc3)cc2)NC(=O)[C@H](C(C)C)NC(=O)[C@H](Cc2c[nH]c3ccccc23)NC(=O)[C@H](CC(=O)O)NC(=O)[C@H](Cc2ccc(O)cc2)NC(=O)[C@H](Cc2ccccc2)NC(=O)CSC[C@@H](C(=O)N[C@@H](C)C(N)=O)NC(=O)[C@H]([C@@H](C)O)NC(=O)[C@H](C(C)C)NC(=O)[C@H](CC(C)C)NC(=O)[C@H](CCCNC(=N)N)NC1=O [Compound 1066] ({CH2CO}-FYDWV[Bip]R[NMeA][dI]RLVTCA-NH2; thioether N-14)
